Data: patent US6444871B1, “Tetracycline repressor regulated mammalian cell transcription and viral replication switch” (Brigham and Women's Hospital, priority 1997, dated 2002)

System: tet operator-bearing hCMV major immediate-early enhancer-promoter
Test: hEGF expression in porcine partial thickness wounds after particle-mediated gene transfer
Type: in vivo, pig
Settings: 500 mg tetracycline intravenous; day 2 to day 3 post-gene transfer
Description: FIG. 5. In vivo regulation of the hCMV major immediate-early enhancer-promoter by the tet repressor. A total of 18 partial thickness wounds ([…]) were created on porcine dorsal skin. Nine wounds received 0.2 μg of pCMVtetOEGF and 0.8 μg of pcDNA3 vector DNA and the others received 0.2 μg of pCMVtetOEGF and 0.8 μg of pcDNA3-tetR by particle-mediated gene transfer. After particle bombardment, each transfected wound was enclosed in a sealed vinyl adhesive chamber containing 1.2 ml of isotonic saline in the presence of 100 units/ml penicillin and 100 μg/ml streptomycin. Wound fluid was collected from the chambers at 22, 46 and 70 hours after gene transfer and stored at −70° C. Following collection of wound fluid at each indicated time point, a new chamber was applied. Each pig was given 500 mg of tetracycline by intravenous injection at 46 hours after gene transfer. hEGF expression in wound fluid was determined by ELISA. The vertical line associated with each bar represents standard error. […]
Preparation of cartridges with coated DNA-gold beads for Accell (Agracetus/Geniva, Inc.) particle-mediated gene transfer and the utilization of the Accell helium gene gun were according to the protocol provided by Geniva, Inc. (8520 University Green, Middleton, Wis. 53562). […] Levels of EGF in wound fluid was determined by ELISA with anti-HEGF specific antibody. […]

`CN(C)[C@@H]1C(O)=C(C(N)=O)C(=O)[C@@]2(O)C(O)=C3C(=O)c4c(O)cccc4[C@@](C)(O)[C@H]3C[C@@H]12` [tetracycline] was tested, and the “increase of human EGF expression in wounds receiving pCMVtetOEGF and pcDNA3-tetR” value was 4 fold.
